Laboratory results published in US20090192147A1, “[a]-FUSED INDOLE COMPOUNDS, THEIR USE AS mTOR KINASE AND PI3 KINASE INHIBITORS, AND THEIR [sequence]” (Wyeth, priority 2008, published 2009).
Read-outs that look alike come from different tables or passages of the source.

How the values were obtained:
PI3K-gamma = PI3K-gamma (Homo sapiens, UniProt P48736); assay: Fluorescence polarization assay for PI3K; format: biochemical; details: 25 μM ATP, diC8-PI(4,5)P2 substrate; read-out: PI3 Kinase γ IC50
Description: (§1) Fluorescence Polarization Assay for PI3K
(§2) Reaction Buffer: 20 mM HEPES, pH 7.5, 2 mM MgCl2, 0.05% CHAPS; and 0.01% BME (added fresh) Stop/Detection Buffer: 100 mM HEPES, pH 7.5, 4 mM EDTA, 0.05% CHAPS; ATP 20 mM in water; PIP2 (diC8, Echelon, Salt Lake City Utah, cat# P-4508) 1 mM in water (MW=856.5); GST-GRP 1.75 mg/mL or 1.4 mg/mL in 10% glycerol; Red detector (TAMRA) 2.5 μM; Plate: Nunc 384 well black polypropylene fluorescence plate.
(§3) PI3-Kinase reactions were performed in […], pH 7, […], and 25 μM ATP, with diC8-PI(4,5)P2 (Echelon, Salt Lake City Utah) as substrate. Nunc 384 well black polypropylene fluorescent plates were used for PI3K assays. Reactions were quenched by the addition of EDTA to a final concentration of […]. Final reaction volumes were 10 μl. For evaluation of PI3K inhibitors, 5 ng of enzyme (PI3K-alpha, beta, gamma, or delta) and 2.5 μM of substrate was used per […] reaction volume, and inhibitor concentrations ranged from 100 pM to 20 μM; the final level of DMSO in reactions never exceeded 2%. Reactions were allowed to proceed for one hour at 25° C. After 1 hour, GST-tagged GRP1 (general receptor for phosphoinositides) PH domain fusion protein was added to a final concentration of 100 nM, and BODIPY-TMRI(1,3,4,5)P4 (Echelon) was also added to a final concentration of 5 nM. Final sample volumes were 25 μl with a final DMSO concentration of 0.8%. Assay Plates were read on PerkinElmer Envision plate readers with appropriate filters for Tamra [BODIPY-TMRI(1,3,4,5)P4]. Data obtained were used to calculate enzymatic activity and enzyme inhibition by inhibitor compounds.

PI3K-alpha = PI3K-alpha (Homo sapiens, UniProt P42336); assay: Fluorescence polarization assay for PI3K; format: biochemical; details: 25 μM ATP, diC8-PI(4,5)P2 substrate; read-out: PI3 Kinase α IC50
Description: as §1, §2, §3

human TOR (FLAG-TOR) = target: T1, human TOR (FLAG-TOR) (Homo sapiens, UniProt P42345); assay: mTOR kinase assay, purified enzyme, DELFIA format; format: biochemical; details: 100 μM ATP, His6-S6K substrate
T1 construct: FLAG

PC3-MM2 cells = assay: In vitro cell culture growth assay (MTS); format: cell-based; details: Homo sapiens, PC3MM2, 72 h, growth inhibition, three days after drug treatment
Description: (§4) Cell lines used were human adenocarcinoma (LoVo), pancreatic […], prostate (LNCap), breast (MDA468, MCF7), colon (HCT116), renal (HTB44 A498), and ovarian (OVCAR3) tumor cell lines. The tumor cells were plated in 96-well culture plates at approximately 3000 cells per well. One day following plating, various concentrations of PI3K inhibitors in DMSO were added to cells (final DMSO concentration in cell assays was 0.25%). Three days after drug treatment, viable cell densities were determined by cell mediated metabolic conversion of the dye MTS, a well-established indicator of cell proliferation in vitro. Cell growth assays were performed using kits purchased from Promega Corporation (Madison, Wis.), following the protocol provided by the vendor. Measuring absorbance at 490 nm generated the MTS assay results. Compound effect on cell proliferation was assessed relative to untreated control cell growth.

[1] = test system: human tumor xenograft models; details: cited from earlier work
[2] = test system: OVCAR3 ovarian tumor cell line; assay: In vitro cell culture growth assay (MTS); format: cell-based; details: Homo sapiens, OVCAR-3, 72 h, growth inhibition, three days after drug treatment
Description: as §4

[3] = test system: acute lymphoblastic leukemia; details: NOS/SCID mouse; cited from earlier work
mTOR enzymes = mTOR enzymes (Homo sapiens, UniProt P42345); details: read-out: mTOR enzymes IC50; literature value; cited from earlier work

PI3K-alpha, sequence (P42336 whole entry, species assumed): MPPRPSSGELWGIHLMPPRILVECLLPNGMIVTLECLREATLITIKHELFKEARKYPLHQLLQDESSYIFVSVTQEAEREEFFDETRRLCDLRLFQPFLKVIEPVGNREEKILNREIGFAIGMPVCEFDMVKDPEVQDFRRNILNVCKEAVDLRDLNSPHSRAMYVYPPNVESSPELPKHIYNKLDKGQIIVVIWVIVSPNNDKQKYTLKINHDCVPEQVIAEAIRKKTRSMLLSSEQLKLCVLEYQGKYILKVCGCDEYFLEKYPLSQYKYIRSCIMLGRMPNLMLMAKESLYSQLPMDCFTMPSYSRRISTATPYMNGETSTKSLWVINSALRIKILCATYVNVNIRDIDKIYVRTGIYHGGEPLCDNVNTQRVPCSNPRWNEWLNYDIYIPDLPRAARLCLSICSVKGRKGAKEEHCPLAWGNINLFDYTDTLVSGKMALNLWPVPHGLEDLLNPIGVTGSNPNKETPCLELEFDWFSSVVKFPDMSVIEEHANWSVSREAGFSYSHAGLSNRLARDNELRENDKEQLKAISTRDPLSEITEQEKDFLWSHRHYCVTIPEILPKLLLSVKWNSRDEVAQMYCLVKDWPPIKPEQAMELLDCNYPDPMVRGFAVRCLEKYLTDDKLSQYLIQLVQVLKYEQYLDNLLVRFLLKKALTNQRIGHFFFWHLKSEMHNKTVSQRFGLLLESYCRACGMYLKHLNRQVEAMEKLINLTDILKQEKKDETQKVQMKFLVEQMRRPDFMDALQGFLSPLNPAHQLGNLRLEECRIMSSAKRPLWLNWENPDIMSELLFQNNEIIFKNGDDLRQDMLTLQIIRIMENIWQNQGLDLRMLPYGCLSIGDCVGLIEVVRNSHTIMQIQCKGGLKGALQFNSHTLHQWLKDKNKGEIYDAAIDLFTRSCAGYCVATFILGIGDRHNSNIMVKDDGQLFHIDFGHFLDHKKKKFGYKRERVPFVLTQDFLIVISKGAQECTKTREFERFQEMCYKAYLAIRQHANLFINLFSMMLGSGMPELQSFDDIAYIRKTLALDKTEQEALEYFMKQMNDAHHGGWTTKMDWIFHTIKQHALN
PI3K-alpha, sequence (P27986 whole entry partner, species assumed): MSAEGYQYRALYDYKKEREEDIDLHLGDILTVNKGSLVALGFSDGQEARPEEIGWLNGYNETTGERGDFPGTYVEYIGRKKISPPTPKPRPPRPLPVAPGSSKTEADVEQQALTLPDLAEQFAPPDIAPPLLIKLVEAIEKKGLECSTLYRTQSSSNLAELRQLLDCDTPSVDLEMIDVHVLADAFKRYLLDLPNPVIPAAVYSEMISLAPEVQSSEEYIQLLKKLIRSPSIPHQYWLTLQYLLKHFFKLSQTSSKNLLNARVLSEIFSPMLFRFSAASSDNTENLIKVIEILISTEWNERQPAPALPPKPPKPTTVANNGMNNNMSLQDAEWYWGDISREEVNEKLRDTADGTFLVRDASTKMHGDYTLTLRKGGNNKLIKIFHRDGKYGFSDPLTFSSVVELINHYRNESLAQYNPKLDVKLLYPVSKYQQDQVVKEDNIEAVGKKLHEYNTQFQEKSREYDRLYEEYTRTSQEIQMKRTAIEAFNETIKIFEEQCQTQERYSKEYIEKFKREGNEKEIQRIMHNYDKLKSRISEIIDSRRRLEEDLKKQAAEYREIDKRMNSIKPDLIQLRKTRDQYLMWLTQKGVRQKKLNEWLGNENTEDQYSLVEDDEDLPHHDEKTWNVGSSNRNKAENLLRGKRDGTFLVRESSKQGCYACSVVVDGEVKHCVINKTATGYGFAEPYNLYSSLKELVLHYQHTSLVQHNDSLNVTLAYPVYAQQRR
PI3K-gamma, sequence (P48736 whole entry): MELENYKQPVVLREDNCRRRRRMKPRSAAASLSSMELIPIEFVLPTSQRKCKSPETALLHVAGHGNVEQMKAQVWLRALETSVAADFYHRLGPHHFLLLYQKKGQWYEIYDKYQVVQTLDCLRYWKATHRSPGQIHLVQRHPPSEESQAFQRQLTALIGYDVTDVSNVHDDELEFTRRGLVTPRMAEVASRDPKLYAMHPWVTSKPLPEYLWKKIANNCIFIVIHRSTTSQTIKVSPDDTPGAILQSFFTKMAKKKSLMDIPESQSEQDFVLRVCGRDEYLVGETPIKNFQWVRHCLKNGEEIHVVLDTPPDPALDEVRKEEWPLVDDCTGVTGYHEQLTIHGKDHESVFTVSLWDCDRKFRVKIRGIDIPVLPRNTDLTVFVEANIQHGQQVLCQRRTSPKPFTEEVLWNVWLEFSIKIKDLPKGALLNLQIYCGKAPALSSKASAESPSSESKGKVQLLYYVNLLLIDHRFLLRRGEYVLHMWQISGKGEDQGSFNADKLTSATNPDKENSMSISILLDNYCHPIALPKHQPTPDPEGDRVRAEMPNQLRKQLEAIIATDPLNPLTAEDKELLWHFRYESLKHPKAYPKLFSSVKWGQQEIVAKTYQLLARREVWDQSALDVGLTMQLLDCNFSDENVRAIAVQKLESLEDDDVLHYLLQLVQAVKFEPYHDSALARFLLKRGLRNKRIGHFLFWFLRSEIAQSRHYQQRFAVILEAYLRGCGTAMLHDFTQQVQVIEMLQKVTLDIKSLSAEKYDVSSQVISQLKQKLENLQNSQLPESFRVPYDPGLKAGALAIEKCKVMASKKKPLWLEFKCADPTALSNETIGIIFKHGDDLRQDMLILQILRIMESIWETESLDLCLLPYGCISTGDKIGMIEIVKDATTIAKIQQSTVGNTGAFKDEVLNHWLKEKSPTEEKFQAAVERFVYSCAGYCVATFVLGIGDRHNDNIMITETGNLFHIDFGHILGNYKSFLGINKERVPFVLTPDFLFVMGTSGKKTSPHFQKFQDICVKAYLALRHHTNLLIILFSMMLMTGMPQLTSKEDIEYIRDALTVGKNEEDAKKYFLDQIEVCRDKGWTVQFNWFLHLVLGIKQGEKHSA

Row | Structure (SMILES) | IC50 (PI3K-gamma) [nM] | IC50 (PI3K-alpha) [nM] | IC50 (human TOR (FLAG-TOR)) [nM] | IC50 (PC3-MM2 cells) [nM] | activity in human tumor xenograft models ([1]; I.P. dosing in mice, U87MG, PC3, MDA-MB-468, MDA-MB-435, HCT 116, SKOV3, IGROV-1) | IC50 [2] [nM] | activity in human tumor xenograft models ([1]; prostrate (PC-3) and glioblastoma (U-87)) | activity in xenograft mouse model of acute lymphoblastic leukemia [3] | IC50 (mTOR enzymes) [nM] | tumor growth in mouse human xenograft cancer models ([1]; chronic oral administration, 400 mg/kg, A549, PC-3, WiDr)
1 | COc1ccc2c(c1)c(/C=C1\Oc3cc(O)cc(O)c3C1=O)c1n2CCOC1=O [Example I, 10-[(Z)-(4,6-dihydroxy-3-oxo-1-benzofuran-2(3H)-ylidene)methyl]-8-methoxy-3,4-dihydro-1H-[1,4]oxazino[4,3-a]indol-1-one] | 9 | 1.1 | 24 | 5630 |  |  |  |  |  | 
2 | Oc1cccc(-c2nc(N3CCOCC3)c3oc4ncccc4c3n2)c1 [Example P1103, 3-(4-(4-morpholinyl)pyrido[3′,2′:4,5]furo[3,2-d]pyrimidin-2-yl)phenol] |  |  |  |  | demonstrated activity |  |  |  |  | 
3 | COc1ccc2c(c1)c(/C=C1\Oc3cc(O)ccc3C1=O)c1n2CCOC1=O [J, 10-[(Z)-(6-hydroxy-3-oxo-1-benzofuran-2(3H)-ylidene)methyl]-8-methoxy-3,4-dihydro-1H-[1,4]oxazino[4,3-a]indol-1-one] | 76.5 | 21.5 | 114 | > 10000 |  | 5280 |  |  |  | 
4 | COc1ccc2c(c1)c(/C=C1\Oc3cc(O)cc(O)c3C1=O)c1n2CCNC1 [K, (2Z)-4,6-dihydroxy-2-[(8-methoxy-1,2,3,4-tetrahydropyrazino[1,2-a]indol-10-yl)methylene]-1-benzofuran-3(2H)-one] | 116 | 5.5 | 9 | 2190 |  | 1620 |  |  |  | 
5 | COc1ccc2c(c1)c(/C=C1\Oc3cc(O)ccc3C1=O)c1n2CCNC1 [L, (2Z)-6-hydroxy-2-[(8-methoxy-1,2,3,4-tetrahydropyrazino[1,2-a]indol-10-yl)methylene]-1-benzofuran-3(2H)-one] | 116 | 16.5 | 320 | 1510 |  | 780 |  |  |  | 
6 | COc1ccc2c(c1)c(/C=C1\Oc3cc(O)cc(O)c3C1=O)c1n2CCOC1 [M, (2Z)-4,6-dihydroxy-2-[(8-methoxy-3,4-dihydro-1H-[1,4]oxazino[4,3-a]indol-10-yl)methylene]-1-benzofuran-3(2H)-one] | 57 | 4.5 | < 32 | 1910 |  | 1000 |  |  |  | 
7 | COc1ccc2c(c1)c(/C=C1\Oc3cc(O)cc(O)c3C1=O)c1n2CCNC1=O [N, 10-[(Z)-(4,6-dihydroxy-3-oxo-1-benzofuran-2(3H)-ylidene)methyl]-8-methoxy-3,4-dihydropyrazino[1,2-a]indol-1(2H)-one] | 24.5 | 2.5 | < 32 | > 10000 |  | 4950 |  |  |  | 
8 | Cn1c(=O)n(-c2ccc(C(C)(C)C#N)cc2)c2c3cc(-c4cnc5ccccc5c4)ccc3ncc21 [NVP-BEZ-235, 2-methyl-2-(4-(3-methyl-2-oxo-8-(quinolin-3-yl)-2,3-dihydro-1H-imidazo[4,5-c]quinolin-1-yl)phenyl)propanenitrile] |  |  |  |  |  |  | demonstrated activity |  |  | 
9 | COc1ccc2c(c1)c(/C=C1\Oc3cc(O)ccc3C1=O)c1n2CCC1 [O, (2Z)-6-hydroxy-2-[(7-methoxy-2,3-dihydro-1H-pyrrolo[1,2-a]indol-9-yl)methylene]-1-benzofuran-3(2H)-one] | 76 | 14 | 66 | 3400 |  | 3720 |  |  |  | 
10 | COc1ccc2c(c1)c(/C=C1\Oc3cc(O)cc(O)c3C1=O)c1n2CCN(C)C1 [P, (2Z)-4,6-dihydroxy-2-[(8-methoxy-2-methyl-1,2,3,4-tetrahydropyrazino[1,2-a]indol-10-yl)methylene]-1-benzofuran-3(2H)-one] | 30.5 | 6 | 9 | 1610 |  | 1670 |  |  |  | 
11 | COc1ccc2c(c1)c(/C=C1\Oc3cc(O)cc(O)c3C1=O)c1n2CCN(C)C1=O [Q, 10-[(Z)-(4,6-dihydroxy-3-oxo-1-benzofuran-2(3H)-ylidene)methyl]-8-methoxy-2-methyl-3,4-dihydropyrazino[1,2-a]indol-1(2H)-one] | 27 | 3 | 4 | 5050 |  | 3600 |  |  |  | 
12 | CO[C@H]1C[C@@H]2CC[C@@H](C)[C@@](O)(O2)C(=O)C(=O)N2CCCC[C@H]2C(=O)O[C@H]([C@H](C)C[C@@H]2CC[C@@H](OC(=O)C(C)(CO)CO)[C@H](OC)C2)CC(=O)[C@H](C)/C=C(\C)[C@@H](O)[C@@H](OC)C(=O)[C@H](C)C[C@H](C)/C=C/C=C/C=C/1C [Torisel] |  |  |  |  |  |  |  | active |  | 
13 | FC(F)c1nc2ccccc2n1-c1nc(N2CCOCC2)nc(N2CCOCC2)n1 [ZSTK474, 2-(2-difluoromethylbenzoimidazol-1-yl)-4,6-dimorpholino-1,3,5-triazine] |  |  |  |  |  |  |  |  | > 10000 | completely inhibited growth
